Columns and labels:
S. aureus DSM 20231 [1] = assay: Bliss interaction score (quartile over a dose matrix) (fitness difference); higher = more antagonism (negative = synergy)
In short: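 The Bliss score is observed minus expected fitness, where expected fitness is the product of the single-drug fitness values inferred from the combination data. Fitness is the OD595 at the onset of stationary phase over the plate's robust no-drug mean, capped at 1. Scores are summarised by quartiles over technical, biological and donor/recipient replicates.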

B. subtilis 168 = assay: fitness (endpoint OD595 vs no drug) (fraction); higher = more growth
In short: (§1)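 Fitness expresses the optical density reached at the stationary-phase transition as a fraction of the robust mean of no-drug control wells. It is capped at 1. Measurements were OD595 every 30 min for 14 h at 37 °C after inoculation of 384-well plates at OD595 0.01 (30 µl, or 55 µl for S. pneumoniae), minus the first reading.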

S. aureus DSM 20231 [2] = assay: as above
In short: as §1

S. pneumoniae D39V = assay: as above
In short: as §1

S. aureus Newman = assay: as above
In short: as §1
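For Bliss interaction score (quartile over a dose matrix) in this document: first quartile when negative (synergy) and third quartile when positive (antagonism).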
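For fitness (endpoint OD595 vs no drug) in this document: OD595 on entry to stationary phase over no-drug wells; at most 1.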

CN(C)CCCN1c2ccccc2Sc2ccc(Cl)cc21 [Chlorpromazine] + CCC[C@@H]1C[C@@H](C(=O)N[C@@H]([C@H]2O[C@H](SC)[C@H](O)[C@@H](O)[C@H]2O)[C@@H](C)O)N(C)C1 [Lincomycin]
Settings | Bliss interaction score
S. aureus DSM 20231 [1] | -0.233

CNC(C)C1CCC(N)C(OC2C(N)CC(N)C(OC3OCC(C)(O)C(NC)C3O)C2O)O1 (stereo not given) [Gentamicin] + CCCc1nc2c(C)cc(-c3nc4ccccc4n3C)cc2n1Cc1ccc(-c2ccccc2C(=O)O)cc1 [Telmisartan]
Settings | Bliss interaction score
S. aureus DSM 20231 [1], main component drawn | 0.241

CN(C)CCCN1c2ccccc2Sc2ccc(Cl)cc21 [Chlorpromazine] + CN[C@H](CC(C)C)C(=O)N[C@H]1C(=O)N[C@@H](CC(N)=O)C(=O)N[C@H]2C(=O)N[C@H]3C(=O)N[C@H](C(=O)N[C@H](C(=O)O)c4cc(O)cc(O)c4-c4cc3ccc4O)[C@H](O[C@H]3C[C@](C)(N)[C@@H](O)[C@H](C)O3)c3ccc(c(Cl)c3)Oc3cc2cc(c3O[C@@H]2O[C@H](CO)[C@@H](O)[C@H](O)[C@H]2O[C@H]2C[C@](C)(NCc3ccc(-c4ccc(Cl)cc4)cc3)[C@@H](O)[C@H](C)O2)Oc2ccc(cc2Cl)[C@H]1O [Oritavancin]
Settings | Bliss interaction score
S. aureus DSM 20231 [1] | -0.202

CC[C@H]1OC(=O)[C@H](C)[C@@H](O[C@H]2C[C@@](C)(OC)[C@@H](O)[C@H](C)O2)[C@H](C)[C@@H](O[C@@H]2O[C@H](C)C[C@H](N(C)C)[C@H]2O)[C@](C)(O)C[C@@H](C)CN(C)[C@H](C)[C@@H](O)[C@]1(C)O [Azithromycin] + CN1CCN(C2=Nc3ccccc3Oc3ccc(Cl)cc32)CC1 [Loxapine]
Settings | Bliss interaction score
S. aureus DSM 20231 [1] | -0.147

CN(N=O)C(=O)N[C@@H](C=O)[C@@H](O)[C@H](O)[C@H](O)CO [Streptozotocin] + CCCSc1nc(N[C@@H]2C[C@H]2c2ccc(F)c(F)c2)c2nnn([C@@H]3C[C@H](OCCO)[C@@H](O)[C@H]3O)c2n1 [Ticagrelor]
Settings | Bliss interaction score
S. aureus DSM 20231 [1] | 0.221

CC[C@H]1OC(=O)[C@H](C)[C@@H](O[C@H]2C[C@@](C)(OC)[C@@H](O)[C@H](C)O2)[C@H](C)[C@@H](O[C@@H]2O[C@H](C)C[C@H](N(C)C)[C@H]2O)[C@](C)(O)C[C@@H](C)CN(C)[C@H](C)[C@@H](O)[C@]1(C)O [Azithromycin] + CN(C)[C@@H]1C(O)=C(C(N)=O)C(=O)[C@@]2(O)C(O)=C3C(=O)c4c(O)ccc(Cl)c4[C@@](C)(O)[C@H]3C[C@@H]12 [Chlortetracycline]
fitness
Settings | first compound 0.125 µg/mL | first compound 0.25 µg/mL | first compound 0.5 µg/mL
B. subtilis 168, partner 0.0475 µg/mL | – | 0.824 | –
S. aureus DSM 20231 [2], partner 0.012 µg/mL | – | – | 0.0274
S. aureus DSM 20231 [2], partner 0.024 µg/mL | 0.112 | 0.0335 | 0.0241
S. aureus DSM 20231 [2], partner 0.048 µg/mL | 0.0779 | 0.0451 | 0.0364

one replicate
Settings | fitness
B. subtilis 168, first compound 2 µg/mL, partner 0.0475 µg/mL | 0.0292
B. subtilis 168, first compound 2 µg/mL, partner 0.095 µg/mL | 0.0192
B. subtilis 168, first compound 2 µg/mL, partner 0.19 µg/mL | 0.025
S. aureus DSM 20231 [2], first compound 0.125 µg/mL, partner 0.006 µg/mL | 0.629
S. aureus DSM 20231 [2], first compound 0.25 µg/mL, partner 0.006 µg/mL | 0.46
S. aureus DSM 20231 [2], first compound 0.5 µg/mL, partner 0.006 µg/mL | 0.0187

Cc1cc(NS(=O)(=O)c2ccc(N)cc2)no1 [Sulfamethoxazol] + CN[C@@H]1[C@H](O)[C@H](NC)[C@H]2O[C@@]3(O)C(=O)C[C@@H](C)O[C@H]3O[C@@H]2[C@H]1O [Spectinomycin]
fitness
Settings | first compound 1 µg/mL | first compound 2 µg/mL | first compound 4 µg/mL
B. subtilis 168, partner 2 µg/mL | 0.926 | 0.853 | 0.941
B. subtilis 168, partner 4 µg/mL | 0.92 | 0.861 | 0.959
B. subtilis 168, partner 8 µg/mL | 0.96 | 0.891 | 0.891
S. aureus DSM 20231 [2], partner 4 µg/mL | 0.897 | 0.896 | 0.994
S. aureus DSM 20231 [2], partner 8 µg/mL | 0.822 | 0.861 | 0.957
S. aureus DSM 20231 [2], partner 16 µg/mL | 0.763 | 0.812 | 0.849
S. aureus Newman, partner 4 µg/mL | 0.972 | 0.964 | 0.983
S. aureus Newman, partner 8 µg/mL | 0.986 | 0.985 | 0.967
S. aureus Newman, partner 16 µg/mL | 0.877 | 0.927 | 0.925
S. pneumoniae D39V, partner 4 µg/mL | 0.954 | 0.889 | 0.924
S. pneumoniae D39V, partner 8 µg/mL | 0.935 | 0.899 | 0.922

one replicate
Settings | fitness
B. subtilis 168, first compound 0.5 µg/mL, partner 2 µg/mL | 0.916
B. subtilis 168, first compound 0.5 µg/mL, partner 4 µg/mL | 0.882
B. subtilis 168, first compound 0.5 µg/mL, partner 8 µg/mL | 0.851
S. aureus DSM 20231 [2], first compound 1 µg/mL, partner 32 µg/mL | 0.826
S. aureus DSM 20231 [2], first compound 1 µg/mL, partner 64 µg/mL | 0.08
S. aureus DSM 20231 [2], first compound 2 µg/mL, partner 32 µg/mL | 0.796
S. aureus DSM 20231 [2], first compound 2 µg/mL, partner 64 µg/mL | 0.0783
S. aureus DSM 20231 [2], first compound 4 µg/mL, partner 32 µg/mL | 0.802
S. aureus DSM 20231 [2], first compound 4 µg/mL, partner 64 µg/mL | 0.0708
S. aureus Newman, first compound 1 µg/mL, partner 32 µg/mL | 0.589
S. aureus Newman, first compound 1 µg/mL, partner 64 µg/mL | 0.0829
S. aureus Newman, first compound 2 µg/mL, partner 32 µg/mL | 0.577
S. aureus Newman, first compound 2 µg/mL, partner 64 µg/mL | 0.0759
S. aureus Newman, first compound 4 µg/mL, partner 32 µg/mL | 0.581
S. aureus Newman, first compound 4 µg/mL, partner 64 µg/mL | 0.0529
S. aureus Newman, first compound 8 µg/mL, partner 4 µg/mL | ≥ 1
S. aureus Newman, first compound 8 µg/mL, partner 8 µg/mL | 0.959
S. aureus Newman, first compound 8 µg/mL, partner 16 µg/mL | 0.905
S. pneumoniae D39V, first compound 1 µg/mL, partner 16 µg/mL | 0.691
S. pneumoniae D39V, first compound 2 µg/mL, partner 16 µg/mL | 0.634
S. pneumoniae D39V, first compound 4 µg/mL, partner 16 µg/mL | 0.702

Cc1cc(NS(=O)(=O)c2ccc(N)cc2)no1 [Sulfamethoxazol] + CN(N=O)C(=O)N[C@@H](C=O)[C@@H](O)[C@H](O)[C@H](O)CO [Streptozotocin]
fitness
Settings | partner 0.15 µg/mL | partner 0.3 µg/mL | partner 0.6 µg/mL | partner 1.2 µg/mL | partner 2.4 µg/mL | partner 4.8 µg/mL
B. subtilis 168, first compound 1 µg/mL | 0.855 | 0.847 | 0.927 | – | – | –
B. subtilis 168, first compound 2 µg/mL | 0.85 | 0.889 | 0.889 | – | – | –
S. aureus DSM 20231 [2], first compound 1 µg/mL | 0.794 | 0.727 | 0.632 | – | – | –
S. aureus DSM 20231 [2], first compound 2 µg/mL | 0.861 | 0.735 | 0.689 | – | – | –
S. aureus DSM 20231 [2], first compound 4 µg/mL | 0.857 | 0.815 | 0.689 | – | – | –
S. aureus Newman, first compound 1 µg/mL | 0.891 | 0.754 | 0.605 | – | – | –
S. aureus Newman, first compound 2 µg/mL | 0.868 | 0.789 | 0.587 | – | – | –
S. aureus Newman, first compound 4 µg/mL | 0.88 | 0.798 | 0.62 | – | – | –
S. pneumoniae D39V, first compound 1 µg/mL | – | – | – | 0.939 | 0.94 | 0.935
S. pneumoniae D39V, first compound 2 µg/mL | – | – | – | 0.944 | 0.942 | 0.953
S. pneumoniae D39V, first compound 4 µg/mL | – | – | – | 0.911 | 0.899 | 0.917

fitness, one replicate
Settings | partner 0.15 µg/mL | partner 0.3 µg/mL | partner 0.6 µg/mL
B. subtilis 168, first compound 0.5 µg/mL | 0.931 | 0.904 | 0.943
B. subtilis 168, first compound 4 µg/mL | ≥ 1 | ≥ 1 | 0.956
S. aureus Newman, first compound 8 µg/mL | 0.854 | 0.804 | 0.751

Reference: the supplement of paper PMC10627819
